According to patent US9023384B2, “Liposome and method for injecting substance to cell using this liposome” (Tokyo Medical and Dental University, priority 2004, dated 2015):

Key:
[1] = tested on: NFκB activity in U2OS cells carrying expressed Cx43; assay: NF-kB reporter gene assay (intracellular luciferase activity) after IL-1β stimulation; format: cell-based
Text: As schematically shown in FIG. 6, an IKK complex is activated by IL-1β stimulation or the like and thereby phosphorylates IκB. The phosphorylated IκB is further polyubiquitinated and degraded by a pathway in a proteasome system. As a result, the suppressive effect of IκB on NFκB (p50+p65) disappears. The nuclear-imported NFκB increases the transcriptional activity of a gene of interest. A NEMO Binding Domain ((SEQ ID NO:3); hereinafter, NBD) is known to be a sequence present in the C-terminus of IKKβ, one component in the IKK complex, and be necessary for binding with IKKγ (NEMO). The solubilized NBD oligopeptide originally suppresses normal IKK functions through its competitive inhibition of the binding of IKKβ with NEMO and thereby suppresses the nuclear import of NFκB and the transcription of a gene of interest. […] Thus, in this example, a liposome having connexon consisting of Cx43 was used to attempt the administration of the NBD peptide into cells via a gap junction.
Specifically, the U2OS cells used in Example 2 was initially cultured until 80 to 90% density in a 10-cm culture dish, on which a liposome containing the NBD peptide was then allowed to act for 12 hours. In this example, the liposome used was constructed in the same way as in Example 1 except that a solution used contained 50 μL of the NBD peptide. […]

[2] = tested on: COX-2 mRNA in U2OS cells carrying expressed Cx43; assay: COX-2 expression by RT-PCR after IL-1 stimulation; format: cell-based
Experimental: Specifically, the U2OS cells used in Example 2 was initially cultured until 80 to 90% density in a 10-cm culture dish, on which a liposome containing the NBD peptide was then allowed to act for 12 hours. In this example, the liposome used was constructed in the same way as in Example 1 except that a solution used contained 50 μL of the NBD peptide.
In FIG. 8, “Cx-U2OS” denotes a result obtained using a liposome having connexon, and “U2OS” denotes a result obtained using a liposome having no connexon. […] Moreover, the suppression of COX-2 expression was not confirmed in the administration of NBD alone, the administration of NBD using the liposome having no Cx43 expression, administration after pretreatment with GA, and the administration of mutant NBD. Furthermore, the NBD effect was not confirmed on U2OS having no Cx43 expression.

| Compound | effect of pretreatment with gap junction inhibitor on the NBD effect on NFκB activity ([1]; pretreatment before NBD administration using Cx43-expressing liposome) | suppression of COX-2 expression by NBD administration after pretreatment with GA ([2]; pretreatment with GA) | suppression of IL-1β stimulation-induced rises in NFκB activity ([1]; liposome for 12 hours, then IL-1β for 24 hours, cells carrying expressed Cx43) | suppression of IL-1 stimulation-induced rises in COX-2 expression ([2]; cells carrying expressed Cx43) |
| --- | --- | --- | --- | --- |
| CC1(C)[C@@H](O)CC[C@]2(C)[C@H]3C(=O)C=C4[C@@H]5C[C@@](C)(C(=O)O)CC[C@]5(C)CC[C@@]4(C)[C@]3(C)CC[C@@H]12 [18β-glycyrrhetinic acid] | suppressed the NBD effect | not confirmed |  |  |
| NBD peptide: NEMO Binding Domain oligopeptide (SEQ ID NO:3), administered without liposome (TALDWSWLQTE; listed as Homo sapiens) |  |  | not confirmed | not confirmed |
